According to patent US20240344095A1, “PROCESS FOR THE PRODUCTION OF MICROBIAL CELLULOSE USING WASTE TEXTILES” (Sanko Tekstil Isletmeleri San. Ve Tic. A.S., priority 2023, published 2024):

Tested on: Gluconacetobacter hansenii ATCC 53582
Experiment: Effect of additives in waste textile glucose medium on bacterial cellulose production
Assay type: cell-based
Conditions: 14 days
Method: The bacterial strain Gluconacetobacter hansenii ATCC 53582 was grown in 500 mL of waste textile glucose medium at an incubation temperature of 28° C.-30° C., for 14 days, in a close-lid plastic box. Different experiments were carried out to test the effect of the addition of different additives (TiBALDH, Glycerol, Ascorbic Acid) in different concentration on the production of bacterial cellulose. At the end of the incubation, the amount of the wet bacterial cellulose obtained was determined. Comparisons of wet bacterial amount change (%) in Table 2, 3, 4, and 5 are based on data in Table 1.

[1] = additives marked + at 0.5% Vitamin C, 1% Glycerol, 0.25% TiBALDH in WTG medium

Compound	Wet BC amount change (Vitamin C Concentration 0.25 % in WTG medium, compared with Table 1)	Wet BC amount change (Vitamin C Concentration 0.50 % in WTG medium, compared with Table 1)	Wet BC amount change (Vitamin C Concentration 1.00 % in WTG medium, compared with Table 1)	Wet BC amount change (Vitamin C Concentration 2.00 % in WTG medium, compared with Table 1)	Wet BC amount change (Vitamin C Concentration 3.00 % in WTG medium, compared with Table 1)	Wet BC amount change (Vitamin C Concentration 4.00 % in WTG medium, compared with Table 1)	Wet BC amount change [1]	Wet BC amount change (Glycerol Concentration 0.5 % in WTG medium, compared with Table 1)	Wet BC amount change (Glycerol Concentration 1.0 % in WTG medium, compared with Table 1)	Wet BC amount change (Glycerol Concentration 2.0 % in WTG medium, compared with Table 1)	Wet BC amount change (TiBALDH Concentration 0.0050 % in WTG medium, compared with Table 1)	Wet BC amount change (TiBALDH Concentration 0.0250 % in WTG medium, compared with Table 1)	Wet BC amount change (TiBALDH Concentration 0.0500 % in WTG medium, compared with Table 1)	Wet BC amount change (TiBALDH Concentration 0.2500 % in WTG medium, compared with Table 1)	Wet BC amount change (TiBALDH Concentration 0.5000 % in WTG medium, compared with Table 1)	Wet BC amount change (TiBALDH Concentration 1.0000 % in WTG medium, compared with Table 1)
O=C1O[C@H]([C@@H](O)CO)C(O)=C1O [Vitamin C, ascorbic acid]	6.75%	9.25%	8.13%	6.95%	5.57%	2.96%	9.25%	–	–	–	–	–	–	–	–	–
OCC(O)CO [Glycerol, glycerol]	–	–	–	–	–	–	19.74%	10.93%	19.74%	10.15%	–	–	–	–	–	–
Titanium (IV) bis-(ammonium lactato) dihydroxide [TiBALDH]	–	–	–	–	–	–	55.30%	–	–	–	7.04%	18.10%	24.13%	55.30%	17.10%	−26.79%
